Data on three compounds can be found in US20060134239A1, “Agents against microorganisms containing patchouli oil, patchouli alcohol and/or the derivatives thereof” (priority 2003, published 2006).

Assay type in all cases: cell-based
The test system of test [1] is Aspergillus niger (DSM 1988). Briefly: Sporulation of Aspergillus niger on wort agar plates, patchouli alcohol (Example 2). On the procedure: Effect of Patchouli Alcohol on the Sporulation of Aspergillus niger
Contamination of the surface of wort agar plates with 100 μl of a germ suspension (10^3 CFU/ml) of Aspergillus niger (DSM 1988). Various quantities of active component (solutions in ethanol, for final concentrations see Table 2) were added to the agar plates beforehand. The plates were incubated for 5 days at 25° C. Sporulation was visually evaluated and the sporulation rate in [%] was determined. […] Sporulation was inhibited with increasing concentrations and was 95% suppressed at 450 μm.

Test [2] relates to Aspergillus niger (DSM 1988). In words: Sporulation of Aspergillus niger on wort agar plates with active component in the agar (Example 1). The note with it: control series. Here is the method: Effect of Patchouli Oil on the Sporulation of Aspergillus niger
Contamination of the surface of wort agar plates with 100 μl of a germ suspension (10^3 CFU/ml) of Aspergillus niger (DSM 1988). Various quantities of active component (dissolved in ethanol, for final concentrations see Table 1) were added to the agar plates beforehand. The plates were incubated for 3 days at 25° C. Sporulation was visually evaluated and the sporulation rate in [%] was determined.
Active component: patchouli oil obtained by steam distillation (mixture of patchouli oil from Kaders, Sensient, Polarome and Nitsche)

For test [3], the system named is Aspergillus niger, DSM 1988. Briefly: Sporulation of Aspergillus niger on the surface of an acetate silicone jointing compound (Example 3). The note with it: for Sporulation [%]: control series. Here is the method: Effect on Patchouli Oil on the Sporulation of Aspergillus niger on the Surface of an Acetate Jointing Compound
Commercially available, but preservative-free, one-component silicone jointing compounds curing at room temperature (acetate system, cured 2.2×2.2×0.3 cm pieces of film) were disinfected with 70% EtOH (ethanol) and placed for 24 h in active component solutions with various concentrations. The test specimens were then re-washed twice with EtOH, rinsed with distilled water (sterile) and dried for 24 h. The test specimens were weighed before and after this treatment and the quantity of active component in the test specimens was thus determined together with the concentration of the active component solution. The test specimens were then placed on wort agar plates and thinly coated with agar in which fungal spores had been incorporated (10^5 CFU/ml Aspergillus niger, DSM 1988). The plates were incubated for 3 days at 25° C. Sporulation was visually evaluated from the test specimens and the sporulation rate in [%] was determined.

For test [4], the system named is Aspergillus niger (DSM 1988). In words: Sporulation of Aspergillus niger on a filter surface after 2 applications (Example 4). Particulars: for Sporulation [%]: 3 days at 25° C. On the procedure: Effect of Patchouli Oil on the Sporulation of Aspergillus niger on a Filter Surface after 2 Applications
Filter papers (2×2 cm) were disinfected and treated twice with a 1 hour interval with 50 μl of active-component solutions (in ethanol) differing in concentration. The test specimens were then dried. The test specimens were then placed on wort agar plates and the surface of the wort agar plates was contaminated with 100 μl of a germ suspension (10^3 CFU/ml) of Aspergillus niger (DSM 1988). The plates were incubated for 3 days at 25° C. Sporulation was visually evaluated and the sporulation rate in [%] was determined. […] Sporulation was inhibited by increasing concentrations of eugenol and was 95% suppressed at 90 μm.

`C[C@H]1CC[C@@]2(O)C(C)(C)[C@@H]3CC[C@@]2(C)[C@H]1C3` [patchouli alcohol, Patchouli alcohol]: the “Inhibition of growth of the test strain” value in test [1] (all concentrations used (up to 450 μm)) is “None of the active component concentrations used inhibited the growth”. In test [1] (at 450 μm, 5 days at 25° C.), the “Suppression of sporulation” value was 95%. Further, the “Sporulation [%]” value in test [1] (concentration 225 μm in wort agar, 5 days at 25° C.) amounted to 95%; in test [1] (concentration 450 μm in wort agar, 5 days at 25° C.), 5%.
`CC(C)=CCCC(C)=CCCC(C)=CCO` [farnesol]: the “Sporulation [%]” value in test [2] (concentration 25 μm in wort agar) amounted to 90%; in test [2] (concentration 62.5 μm in wort agar) it was 75%; in test [2] (concentration 125 μm in wort agar), 50%; in test [2] (concentration 250 μm in wort agar) it was 10%; in test [2] (concentration 500 μm in wort agar), 0%; in test [3] (0.4 μm/g jointing compound), 100%. Further, the “Sporulation [%]” value in test [3] (1.1 μm/g jointing compound) came out at 100%; in test [3] (17 μm/g jointing compound), 30%; in test [4] (solution concentration 0.5 μm, filter paper treated twice with 50 μl) it was 100%; in test [4] (solution concentration 5 μm, filter paper treated twice) it was 100%; in test [4] (solution concentration 25 μm, filter paper treated twice), 100%; in test [4] (solution concentration 35 μm, filter paper treated twice), 60%. In addition, the “Sporulation [%]” value was 80% in test [4] (solution concentration 50 μm, filter paper treated twice); 50% in test [4] (solution concentration 70 μm, filter paper treated twice); 40% in test [4] (solution concentration 90 μm, filter paper treated twice). Also, the “Inhibition of sporulation compared with identical concentrations of patchouli oil” value in test [3] (parallel test series on jointing compound) is reported as “inhibited, but to a far lesser extent”; in test [4] (second, parallel test series on filter paper), “inhibited, but to a lesser extent”.
For the compound `C=CCc1ccc(O)c(OC)c1` [eugenol], the “Suppression of sporulation” value is given as “completely suppressed” in test [3] (at 9 μm/g jointing compound) and 95% in test [4] (at 90 μm).
